What all share (type): cell-based
For test [1], the target named is T1, human TRPM8 (Homo sapiens, UniProt Q7Z2W7).
T1 construct: expressed in transfected cells; host or cells: CHO (p658 mammalian expression vector)
The experiment in a line: In vitro human TRPM8 fluorescence calcium flux assay (recombinant CHO cells, Fluo4-AM, FDSS6000). The conditions noted are these: recombinant CHO cells expressing human TRPM8; menthol-related EC50, normalized to 100 μM menthol. The essentials:
(§1)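 CHO cells stably expressing pig or human TRPM8, loaded with 2 μM Fluo4-AM in HBSS/20 mM HEPES/0.1% BSA/2.5 mM probenecid for 1 h at RT. Intracellular calcium read kinetically for 3 min after compound addition. EC50 from sixteen-point curves, normalized to 100 μM menthol maximal response.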
A general note: Calcium flux is commonly read through the fluorescence of an indicator in the cells.

Test [2] concerns the target T2, pig TRPM8 (Sus scrofa, UniProt F1SM15).
T2 construct: expressed in transfected cells; host or cells: CHO (pcDNA5/FRT/TO vector; hygromycin B and blasticidin selection)
Kind of test: In vitro pig TRPM8 fluorescence calcium flux assay (recombinant CHO cells, Fluo4-AM, FDSS6000). The settings on record: recombinant CHO cells expressing pig TRPM8; menthol-related EC50, normalized to 100 μM menthol. Put shortly: as §1

Test [3] deals with T1, human TRPM8. The experiment in a line: In vitro human TRPM8 automated patch-clamp assay (SyncroPatch 384PE, CHO cells). The settings on record: CHO cells expressing human TRPM8, 28° C. The procedure:
(§2) In Vitro Pig and Human TRPM8 Automated Patch-Clamp Assays
(§3) Automated whole-cell recordings of compound effects were performed on the SyncroPatch 384PE (Nanion Technologies, Munich, Germany) incorporated into a Biomek FX pipetting robot (Beckman Coulter, Jersey City, NJ, USA) using the same engineered CHO cell lines expressing human or pig TRPM8 channels. Data acquisition and analysis were performed with the proprietary software PatchControl 384 and DataControl 384, respectively (Nanion Technologies, Munich, Germany). All recordings were carried out using planar borosilicate glass patch clamp chips in a 384-microtiter plate format with patch hole resistances of 2-4 MO. For recordings, standard intracellular solution was used containing (in mM): 130 KF, 4 NaCl, 1 MgCl2, 0.5 CaCl2, 10 HEPES and 10 EGTA/KOH (pH 7.2) and standard extracellular solution contained in mM: 150 NaCl, 4 KCl, 0.5 CaCl2, 1 MgCl2 and 10 HEPES (pH 7.3).
(§4) Prior to the electrophysiological measurements, cells were harvested using Accutase (GIBCO, Fisher Scientific) and resuspended in warmed extracellular solution. The cell suspension was kept in the dedicated cell reservoir at 28° C. at a 1 million/ml cell density and shaken at 500 rounds per min (rpm). Experiments were performed at 28° C. throughout. Cells were distributed in high resistance 4-holes-per-well Nanion chips where they were caught on the patch holes by application of a −80 mbar pressure. The cell membrane was ruptured to obtain the whole-cell configuration with a pressure pulse of −250 mbar for 2 seconds. Voltage protocols were constructed using PatchControl 384. The cells were held at a holding potential of −60 mV and TRPM8 currents were recorded using a ramp protocol from −80 to +80 mV every 5 seconds before and after compound addition. Resulting currents were recorded at both −80 and +80 mV and current kinetics were exported and analyzed. From each plate, control wells with 200 μM menthol were recorded to validate the assay. One concentration of compound was applied to each of the other wells. For each concentration, compound response was determined by subtracting the baseline current recorded before compound addition from the maximum peak elicited currents obtained after compound addition. Then, each compound response was normalized to control condition without compound and maximum current (Emax) obtained for each compound. Nanion DataControl 384 software plotted current response for each compound concentration and was able to calculate an EC50 value for each active compound.

The target in test [4] is T2, pig TRPM8. Kind of test: In vitro pig TRPM8 automated patch-clamp assay (SyncroPatch 384PE, CHO cells). The conditions noted are these: CHO cells expressing pig TRPM8, 28° C. The procedure:
as §2, §3, §4
(In general: Patch clamp records ionic current or voltage across a cell membrane.)

The structures appear in SMILES notation. Counter-ions that a name gives are not always drawn.

The term EC50 denotes the midpoint of the concentration-response curve.

T1 sequence (Q7Z2W7 whole entry): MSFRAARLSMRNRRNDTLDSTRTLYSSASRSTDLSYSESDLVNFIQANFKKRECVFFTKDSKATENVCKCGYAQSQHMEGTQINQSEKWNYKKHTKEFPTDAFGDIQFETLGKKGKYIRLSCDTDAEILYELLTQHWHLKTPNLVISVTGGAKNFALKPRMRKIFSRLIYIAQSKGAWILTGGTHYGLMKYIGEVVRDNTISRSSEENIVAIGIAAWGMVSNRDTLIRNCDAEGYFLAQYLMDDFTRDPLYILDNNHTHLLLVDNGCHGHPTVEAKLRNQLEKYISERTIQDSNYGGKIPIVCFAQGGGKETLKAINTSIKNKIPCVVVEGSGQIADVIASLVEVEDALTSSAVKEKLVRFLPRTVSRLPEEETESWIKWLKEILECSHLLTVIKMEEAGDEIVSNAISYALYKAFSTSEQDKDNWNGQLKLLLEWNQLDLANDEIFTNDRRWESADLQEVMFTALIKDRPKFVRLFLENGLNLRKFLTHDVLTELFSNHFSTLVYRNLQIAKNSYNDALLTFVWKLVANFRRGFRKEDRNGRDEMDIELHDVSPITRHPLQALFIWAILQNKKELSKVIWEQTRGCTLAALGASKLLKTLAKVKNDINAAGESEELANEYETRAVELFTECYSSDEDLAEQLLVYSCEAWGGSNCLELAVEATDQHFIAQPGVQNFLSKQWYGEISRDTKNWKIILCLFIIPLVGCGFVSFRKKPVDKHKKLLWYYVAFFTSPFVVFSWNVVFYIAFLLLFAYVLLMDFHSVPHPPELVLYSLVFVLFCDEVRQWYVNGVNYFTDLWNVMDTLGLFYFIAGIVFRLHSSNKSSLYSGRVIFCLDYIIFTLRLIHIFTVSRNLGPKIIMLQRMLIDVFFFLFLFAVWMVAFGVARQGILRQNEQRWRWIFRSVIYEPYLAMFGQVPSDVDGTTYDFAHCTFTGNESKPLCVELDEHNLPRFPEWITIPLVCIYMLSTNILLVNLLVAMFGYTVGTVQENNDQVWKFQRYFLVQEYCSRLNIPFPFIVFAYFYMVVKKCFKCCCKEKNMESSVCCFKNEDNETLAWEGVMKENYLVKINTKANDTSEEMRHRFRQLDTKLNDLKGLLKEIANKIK
T2 sequence (F1SM15 1-1104): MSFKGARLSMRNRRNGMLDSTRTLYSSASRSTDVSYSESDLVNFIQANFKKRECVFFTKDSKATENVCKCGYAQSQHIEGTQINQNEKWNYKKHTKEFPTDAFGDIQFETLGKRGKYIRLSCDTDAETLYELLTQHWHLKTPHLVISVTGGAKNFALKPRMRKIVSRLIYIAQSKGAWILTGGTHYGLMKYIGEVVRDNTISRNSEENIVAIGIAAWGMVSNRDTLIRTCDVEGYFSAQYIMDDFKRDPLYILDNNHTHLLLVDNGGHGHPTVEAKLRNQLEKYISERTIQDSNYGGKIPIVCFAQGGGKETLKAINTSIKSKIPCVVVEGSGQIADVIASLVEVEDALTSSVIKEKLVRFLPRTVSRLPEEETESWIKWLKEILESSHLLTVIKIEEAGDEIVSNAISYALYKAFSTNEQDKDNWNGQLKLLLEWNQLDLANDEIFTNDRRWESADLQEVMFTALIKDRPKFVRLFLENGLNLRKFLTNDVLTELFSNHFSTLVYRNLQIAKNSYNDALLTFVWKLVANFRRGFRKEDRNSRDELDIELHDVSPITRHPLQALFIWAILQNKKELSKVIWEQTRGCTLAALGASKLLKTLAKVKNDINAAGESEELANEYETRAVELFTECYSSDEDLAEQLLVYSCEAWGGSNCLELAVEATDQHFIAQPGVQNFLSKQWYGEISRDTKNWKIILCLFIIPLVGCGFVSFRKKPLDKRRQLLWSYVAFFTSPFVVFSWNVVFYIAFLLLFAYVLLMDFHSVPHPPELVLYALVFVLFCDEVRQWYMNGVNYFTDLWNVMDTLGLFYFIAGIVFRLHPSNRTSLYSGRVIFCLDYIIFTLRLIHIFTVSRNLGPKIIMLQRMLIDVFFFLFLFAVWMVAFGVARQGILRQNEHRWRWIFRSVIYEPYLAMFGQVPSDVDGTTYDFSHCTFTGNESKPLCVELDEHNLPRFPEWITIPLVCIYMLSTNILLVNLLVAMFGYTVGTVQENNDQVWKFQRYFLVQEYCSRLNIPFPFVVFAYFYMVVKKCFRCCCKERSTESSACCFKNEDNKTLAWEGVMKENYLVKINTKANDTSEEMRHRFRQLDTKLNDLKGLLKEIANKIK

On to `CC(C)[C@@H]1CC[C@@H](C)C[C@@]1(O)C(=O)NCC(O)c1ccccc1O` (stereo partly drawn) [Example 35, (1S,2S,5R)-1-hydroxy-N-(2-hydroxy-2-(2-hydroxyphenyl)ethyl)-2-isopropyl-5-methylcyclohexane-1-carboxamide], for which the EC50 is 3 nM at human TRPM8 [1], 3 nM at pig TRPM8 [2], 1010 nM on human TRPM8 [3] and 1330 nM on pig TRPM8 [4].
With `COC(=O)[C@H](N)COc1cccc(CCNC(=O)[C@]2(O)C[C@H](C)CC[C@H]2C(C)C)c1` [Example 26, methyl O-(3-(2-((1S,2S,5R)-1-hydroxy-2-isopropyl-5-methylcyclohexane-1-carboxamido)ethyl)phenyl)-D-serinate], the EC50 at human TRPM8 [1] is 3.7 nM; at pig TRPM8 [2], 5.5 nM; at human TRPM8 [3], 1800 nM; at pig TRPM8 [4], 1100 nM.
As for `CC(C)[C@@H]1CC[C@@H](C)C[C@@]1(O)C(=O)NCC(NC(=O)CN)c1ccccc1` (single isomer, unassigned) [Example 184], the 50% effective concentration (EC50) was found to be 14.5 nM at human TRPM8 [1], 28.1 nM on pig TRPM8 [2], 600 nM on human TRPM8 [3] and 567 nM on pig TRPM8 [4].
The like results for `CC(C)[C@@H]1CC[C@@H](C)C[C@@]1(O)C(=O)NCC(C(=O)OCCN)c1ccccc1` (stereo partly drawn) [Example 71, 2-aminoethyl 3-((1S,2S,5R)-1-hydroxy-2-isopropyl-5-methylcyclohexane-1-carboxamido)-2-phenylpropanoate hydrochloride] were, in that order, 1 nM, 2 nM, 183 nM and 862 nM.
On to `CC(C)[C@@H]1CC[C@@H](C)C[C@@]1(O)C(=O)NCCc1ccccc1O` [Example 116, (1S,2S,5R)-1-hydroxy-N-[2-(2-hydroxyphenyl)ethyl]-2-isopropyl-5-methyl-cyclohexanecarboxamide], for which the EC50 at human TRPM8 [1] stood at 3.3 nM; on pig TRPM8 [2], 2.5 nM; on human TRPM8 [3], 1300 nM; on pig TRPM8 [4], 504 nM.
As to `Cc1cccc(CCNC(=O)[C@]2(O)C[C@H](C)CC[C@H]2C(C)C)c1` [Example 58, (1S,2S,5R)-1-hydroxy-2-isopropyl-5-methyl-N-(3-methylphenethyl)cyclohexane-1-carboxamide], the EC50 at human TRPM8 [1] turned out to be 5.2 nM; at pig TRPM8 [2], 2.2 nM; on human TRPM8 [3] it was 1030 nM; at pig TRPM8 [4] it was 887 nM.
The like results for `CC(=O)O[C@H](CNC(=O)[C@]1(O)C[C@H](C)CC[C@H]1C(C)C)c1ccccc1` [Example 3, (S)-2-((1S,2S,5R)-1-hydroxy-2-isopropyl-5-methylcyclohexane-1-carboxamido)-1-phenylethyl acetate] were, in that order, 36.8 nM, 35.5 nM, 1120 nM and 9910 nM.
As for `CCOC(=O)c1cccc(CCNC(=O)[C@]2(O)C[C@H](C)CC[C@H]2C(C)C)c1` [Example 28, ethyl 3-(2-((1S,2S,5R)-1-hydroxy-2-isopropyl-5-methylcyclohexane-1-carboxamido)ethyl)benzoate], the EC50 on human TRPM8 [1] was determined as 250 nM; on pig TRPM8 [2] it was 311 nM; at human TRPM8 [3] it was 1440 nM; on pig TRPM8 [4] it was 5400 nM.
`CC(C)[C@@H]1CC[C@@H](C)C[C@@]1(O)C(=O)NCCc1ccccc1OCC(O)CO` (stereo partly drawn) [Example 9, (1S,2S,5R)—N-(2-(2,3-dihydroxypropoxy)phenethyl)-1-hydroxy-2-isopropyl-5-methylcyclohexane-1-carboxamide]: the EC50 at human TRPM8 [1] stood at 8.8 nM; at pig TRPM8 [2], 6.3 nM; on human TRPM8 [3], 2400 nM; on pig TRPM8 [4], 4100 nM.
As for `CC(C)[C@@H]1CC[C@@H](C)C[C@@]1(O)C(=O)NCC(O)c1cccc(CO)c1` (stereo partly drawn) [Example 37, (1S,2S,5R)-1-hydroxy-N-(2-hydroxy-2-(3-(hydroxymethyl)phenyl)ethyl)-2-isopropyl-5-methylcyclohexane-1-carboxamide], the half-maximal effective concentration (EC50) amounted to 17 nM on human TRPM8 [1], 11 nM at pig TRPM8 [2], 3100 nM at human TRPM8 [3] and 2360 nM on pig TRPM8 [4].
The like results for `CC(C)[C@@H]1CC[C@@H](C)C[C@@]1(O)C(=O)N[C@@H]1COc2ccccc2C1` [Example 94, (1S,2S,5R)—N-((3S)-chroman-3-yl)-1-hydroxy-2-isopropyl-5-methylcyclohexane-1-carboxamide] were, in that order, 6.4 nM, 7.7 nM, 1070 nM and 1500 nM.
For `CC(C)[C@@H]1CC[C@@H](C)C[C@@]1(O)C(=O)NCC(=O)c1ccccc1` [Example 2, (1S,2S,5R)-1-hydroxy-2-isopropyl-5-methyl-N-(2-oxo-2-phenylethyl)cyclohexane-1-carboxamide] the same measures were 1.2 nM, 0.7 nM, 450 nM and 596 nM.
The like results for `CC(C)[C@@H]1CC[C@@H](C)C[C@@]1(O)C(=O)NCC(CO)c1ccccc1` (stereo partly drawn) [Example 70, (1S,2S,5R)-1-hydroxy-N-(3-hydroxy-2-phenylpropyl)-2-isopropyl-5-methylcyclohexane-1-carboxamide] were, in that order, 9 nM, 8 nM, 3990 nM and 3740 nM.
Consider `COC(=O)[C@@H](N)Cc1cccc(CCNC(=O)[C@]2(O)C[C@H](C)CC[C@H]2C(C)C)c1` [Example 20, methyl (S)-2-amino-3-(3-(2-((1S,2S,5R)-1-hydroxy-2-isopropyl-5-methylcyclohexane-1-carboxamido)ethyl)phenyl)propanoate], for which the EC50 was 3.2 nM on human TRPM8 [1], 6.6 nM on pig TRPM8 [2], 1400 nM on human TRPM8 [3] and 1420 nM at pig TRPM8 [4].
For `CC(C)[C@@H]1CC[C@@H](C)C[C@@]1(O)C(=O)NCC1(O)CCOc2ccccc21` (stereo partly drawn) [Example 96, (1S,2S,5R)-1-hydroxy-N-((4-hydroxychroman-4-yl)methyl)-2-isopropyl-5-methylcyclohexane-1-carboxamide] the same measures were 10.3 nM, 25.2 nM, 630 nM and 1100 nM.
For `COc1cc(C=O)ccc1OC(=O)CNC(=O)[C@]1(O)C[C@H](C)CC[C@H]1C(C)C` [Example 68, 4-formyl-2-methoxyphenyl ((1S,2S,5R)-1-hydroxy-2-isopropyl-5-methylcyclohexane-1-carbonyl)glycinate] the same measures were 44 nM, 32 nM, 2690 nM and 3640 nM.
For `CC(C)[C@@H]1CC[C@@H](C)C[C@@]1(O)C(=O)NCC(O)c1ccccc1Cl` (stereo partly drawn) [Example 160, (1S,2S,5R)-N-[2-(2-chlorophenyl)-2-hydroxy-ethyl]-1-hydroxy-2-isopropyl-5-methyl-cyclohexanecarboxamide] the same measures were 16.1 nM, 16.4 nM, 620 nM and 480 nM.
Take `CC(C)[C@@H]1CC[C@@H](C)C[C@@]1(O)C(=O)NCCc1ccccc1CCN` [Example 53, (1S,2S,5R)—N-(2-(2-aminoethyl)phenethyl)-1-hydroxy-2-isopropyl-5-methylcyclohexane-1-carboxamide]: the concentration for a half-maximal effect (EC50) on human TRPM8 [1] is 2.4 nM; at pig TRPM8 [2], 2.6 nM; at human TRPM8 [3] it was 200 nM; on pig TRPM8 [4], 326 nM.
For `CC(C)[C@@H]1CC[C@@H](C)C[C@@]1(O)C(=O)NCC(NC(=O)[C@H](C)N)c1ccccc1` (single isomer, unassigned) [Example 182] the same measures were 3.7 nM, 3.8 nM, 66 nM and 52 nM.

For the origin of these results see patent US20240124408A1 (Sanofi, priority 2020, published 2024).
